Source: ChEMBL document CHEMBL1201862, “PubChem BioAssay data set” (2004)
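Assay format: 96-well plates, 48-hour exposure. Abbreviation: GI50, concentration required for 50% inhibition of growth.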 Calls of active or inactive are those of the source. No stated cut-off is given here; in the data, active = GI50 up to about 1.1 µM and inactive = higher.

Tests used:
Assay in all cases: growth of human tumour cells (NCI), 48 h
[1] = system: PC-3
[2] = system: KM12
[3] = system: IGROV-1
[4] = system: SK-MEL-5
[5] = system: SF-539
[6] = system: SK-MEL-2
[7] = system: MDA-N
[8] = system: BT-549
[9] = system: HOP-62
[10] = system: UACC-257
[11] = system: SK-OV-3
[12] = system: MCF7
[13] = system: SNB-19
[14] = system: SF-268
[15] = system: SW-620
[16] = system: SR
[17] = system: MOLT-4
[18] = system: UACC-62
[19] = system: LOX IMVI
[20] = system: ACHN
[21] = system: T47D
[22] = system: CAKI-1
[23] = system: CCRF-CEM
[24] = system: DU-145
[25] = system: U-251
[26] = system: M14
[27] = system: SN12C
[28] = system: A549
[29] = system: MDA-MB-231
[30] = system: OVCAR-8
[31] = system: HCT-15
[32] = system: Hs-578T
[33] = system: COLO 205
[34] = system: OVCAR-3
[35] = system: NCI-H23
[36] = system: OVCAR-5
[37] = system: UO-31
[38] = system: SF-295
[39] = system: EKVX
[40] = system: HL-60
[41] = system: HT-29
[42] = system: 786-0
[43] = system: NCI-H460
[44] = system: MDA-MB-435
[45] = system: RPMI-8226
[46] = system: HCT-116
[47] = system: K562
[48] = system: NCI/ADR-RES
[49] = system: SK-MEL-28
[50] = system: RXF 393
[51] = system: HCC 2998
[52] = system: NCI-H226
[53] = system: A498
[54] = system: TK-10
[55] = system: HOP-92
[56] = system: SNB-75
[57] = system: Malme-3M
[58] = system: NCI-H522
[59] = system: OVCAR-4

`Oc1ccc(/C=N/N=c2\[nH][nH]/c(=N\N=C\c3ccc(O)cc3O)c3ccccc23)c(O)c1` was tested, and the GI50 [1] was 0.375 µM (active), the GI50 [2] was 0.275 µM (active) and the GI50 [3] was 0.327 µM (active). The GI50 [4] was 0.236 µM (active), the GI50 [5] was 0.294 µM (active) and the GI50 [6] was 0.288 µM (active). The GI50 [7] was 0.228 µM (active), the GI50 [8] was 0.21 µM (active) and the GI50 [9] was 0.304 µM (active). For the same compound, the GI50 [10] was 0.428 µM (active), the GI50 [11] was 0.428 µM (active) and the GI50 [12] was 0.274 µM (active). The GI50 [13] was 0.473 µM (active), the GI50 [14] was 0.126 µM (active) and the GI50 [15] was 0.385 µM (active). The GI50 [16] was 0.136 µM (active), the GI50 [17] was 0.0865 µM (active) and the GI50 [18] was 0.234 µM (active). The GI50 [19] was 0.313 µM (active), the GI50 [20] was 0.21 µM (active) and the GI50 [21] was 0.271 µM (active). The GI50 [22] was 0.268 µM (active), the GI50 [23] was 0.345 µM (active) and the GI50 [24] was 0.338 µM (active). For the same compound, the GI50 [25] was 0.2 µM (active), the GI50 [26] was 0.318 µM (active) and the GI50 [27] was 0.308 µM (active). For the same compound, the GI50 [28] was 0.315 µM (active), the GI50 [29] was 0.401 µM (active) and the GI50 [30] was 0.25 µM (active). The GI50 [31] was 0.244 µM, the GI50 [32] was 0.29 µM (active) and the GI50 [33] was 0.581 µM (active). The GI50 [34] was 0.185 µM (active), the GI50 [35] was 0.326 µM (active) and the GI50 [36] was 0.422 µM (active). For the same compound, the GI50 [37] was 0.388 µM (active), the GI50 [38] was 0.295 µM (active) and the GI50 [39] was 0.211 µM (active). For the same compound, the GI50 [40] was 0.271 µM (active), the GI50 [41] was 0.331 µM (active) and the GI50 [42] was 0.378 µM (active). For the same compound, the GI50 [43] was 0.355 µM (active), the GI50 [44] was 0.314 µM (active) and the GI50 [45] was 0.3 µM (active). The GI50 [46] was 0.313 µM (active), the GI50 [47] was 0.261 µM (active) and the GI50 [48] was 0.427 µM (active).
In the case of `C/C(=N\c1cc(Cl)cc(Cl)c1)c1ccncc1`, the GI50 [1] is reported as > 100 µM (inactive), the GI50 [2] is reported as > 100 µM (inactive) and the GI50 [3] is reported as > 100 µM (inactive). For the same compound, the GI50 [4] was > 100 µM (inactive), the GI50 [49] was > 100 µM (inactive) and the GI50 [5] was > 100 µM (inactive). For the same compound, the GI50 [6] was > 100 µM (inactive), the GI50 [7] was > 100 µM (inactive) and the GI50 [8] was > 100 µM (inactive). For the same compound, the GI50 [50] was > 100 µM (inactive), the GI50 [9] was > 100 µM (inactive) and the GI50 [10] was > 100 µM (inactive). The GI50 [11] was 29.9 µM (inactive), the GI50 [51] was > 100 µM (inactive) and the GI50 [12] was > 100 µM (inactive). For the same compound, the GI50 [13] was > 100 µM (inactive), the GI50 [52] was > 100 µM (inactive) and the GI50 [14] was > 100 µM (inactive). For the same compound, the GI50 [53] was > 100 µM (inactive), the GI50 [15] was > 100 µM (inactive) and the GI50 [17] was > 100 µM (inactive). For the same compound, the GI50 [54] was > 100 µM (inactive), the GI50 [18] was 15 µM (inactive) and the GI50 [19] was > 100 µM (inactive). For the same compound, the GI50 [20] was > 100 µM (inactive), the GI50 [21] was > 100 µM (inactive) and the GI50 [22] was > 100 µM (inactive). The GI50 [23] was > 100 µM (inactive), the GI50 [24] was > 100 µM (inactive) and the GI50 [25] was > 100 µM (inactive). The GI50 [26] was > 100 µM (inactive), the GI50 [27] was > 100 µM (inactive) and the GI50 [28] was > 100 µM (inactive). The GI50 [55] was 63.8 µM (inactive), the GI50 [29] was > 100 µM (inactive) and the GI50 [30] was > 100 µM (inactive). The GI50 [31] was > 100 µM, the GI50 [56] was > 100 µM (inactive) and the GI50 [32] was > 100 µM (inactive). The GI50 [33] was > 100 µM (inactive), the GI50 [34] was > 100 µM (inactive) and the GI50 [35] was > 100 µM (inactive). For the same compound, the GI50 [57] was > 100 µM (inactive), the GI50 [36] was > 100 µM (inactive) and the GI50 [37] was 89.7 µM (inactive). For the same compound, the GI50 [38] was > 100 µM (inactive), the GI50 [58] was > 100 µM (inactive) and the GI50 [59] was > 100 µM (inactive). The GI50 [39] was > 100 µM (inactive), the GI50 [41] was > 100 µM (inactive) and the GI50 [42] was > 100 µM (inactive). For the same compound, the GI50 [43] was > 100 µM (inactive), the GI50 [44] was > 100 µM (inactive) and the GI50 [45] was 31 µM (inactive). The GI50 [46] was > 100 µM (inactive), the GI50 [47] was > 100 µM (inactive) and the GI50 [48] was > 100 µM (inactive).
